In patent US7879881B2, “Piperidinyl compounds that selectively bind integrins” (Janssen Pharmaceutica NV, priority 2002, dated 2011):
Where two headings read alike, the source gives them in different places.

Key:
Human αvβ3 = target: T1, Human αvβ3 (Homo sapiens, UniProt P05106+P06756); test: In Vitro Solid Phase Purified αvβ3 Binding Assay (vitronectin/αvβ3); conditions: vitronectin binding to immobilized purified human αvβ3, mean ± spread
T1 construct: purchased Chemicon International Inc., Temecula, Calif
T1 sequence (P06756 31-889 limits assumed): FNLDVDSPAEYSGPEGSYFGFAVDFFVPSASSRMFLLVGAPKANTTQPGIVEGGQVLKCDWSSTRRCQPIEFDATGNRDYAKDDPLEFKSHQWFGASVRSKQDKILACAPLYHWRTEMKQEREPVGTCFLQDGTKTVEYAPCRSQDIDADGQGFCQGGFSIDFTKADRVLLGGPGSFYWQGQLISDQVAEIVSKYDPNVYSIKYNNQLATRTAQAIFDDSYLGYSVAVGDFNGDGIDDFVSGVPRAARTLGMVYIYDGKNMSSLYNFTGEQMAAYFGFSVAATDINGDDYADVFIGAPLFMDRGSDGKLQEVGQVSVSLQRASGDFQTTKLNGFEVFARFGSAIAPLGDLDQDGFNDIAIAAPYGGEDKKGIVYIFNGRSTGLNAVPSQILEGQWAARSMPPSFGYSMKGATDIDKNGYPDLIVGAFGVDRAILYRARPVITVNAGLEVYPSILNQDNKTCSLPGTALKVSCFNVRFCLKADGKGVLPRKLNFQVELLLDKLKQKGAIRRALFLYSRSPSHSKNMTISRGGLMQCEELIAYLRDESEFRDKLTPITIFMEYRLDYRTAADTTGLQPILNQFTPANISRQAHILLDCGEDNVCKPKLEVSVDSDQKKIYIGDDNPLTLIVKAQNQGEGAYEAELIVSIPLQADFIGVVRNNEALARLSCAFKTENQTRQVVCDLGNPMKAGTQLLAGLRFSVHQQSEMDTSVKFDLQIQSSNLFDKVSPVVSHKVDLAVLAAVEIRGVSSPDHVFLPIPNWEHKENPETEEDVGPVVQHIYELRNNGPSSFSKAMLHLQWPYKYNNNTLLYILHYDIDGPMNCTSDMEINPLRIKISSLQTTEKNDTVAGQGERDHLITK
T1 sequence (P06756 891-1048 partner limits assumed): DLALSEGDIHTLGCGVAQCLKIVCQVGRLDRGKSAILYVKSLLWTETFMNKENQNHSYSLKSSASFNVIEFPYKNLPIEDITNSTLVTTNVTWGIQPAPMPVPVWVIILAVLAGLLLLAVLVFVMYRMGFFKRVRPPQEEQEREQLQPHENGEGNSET
T1 sequence (P05106 27-788): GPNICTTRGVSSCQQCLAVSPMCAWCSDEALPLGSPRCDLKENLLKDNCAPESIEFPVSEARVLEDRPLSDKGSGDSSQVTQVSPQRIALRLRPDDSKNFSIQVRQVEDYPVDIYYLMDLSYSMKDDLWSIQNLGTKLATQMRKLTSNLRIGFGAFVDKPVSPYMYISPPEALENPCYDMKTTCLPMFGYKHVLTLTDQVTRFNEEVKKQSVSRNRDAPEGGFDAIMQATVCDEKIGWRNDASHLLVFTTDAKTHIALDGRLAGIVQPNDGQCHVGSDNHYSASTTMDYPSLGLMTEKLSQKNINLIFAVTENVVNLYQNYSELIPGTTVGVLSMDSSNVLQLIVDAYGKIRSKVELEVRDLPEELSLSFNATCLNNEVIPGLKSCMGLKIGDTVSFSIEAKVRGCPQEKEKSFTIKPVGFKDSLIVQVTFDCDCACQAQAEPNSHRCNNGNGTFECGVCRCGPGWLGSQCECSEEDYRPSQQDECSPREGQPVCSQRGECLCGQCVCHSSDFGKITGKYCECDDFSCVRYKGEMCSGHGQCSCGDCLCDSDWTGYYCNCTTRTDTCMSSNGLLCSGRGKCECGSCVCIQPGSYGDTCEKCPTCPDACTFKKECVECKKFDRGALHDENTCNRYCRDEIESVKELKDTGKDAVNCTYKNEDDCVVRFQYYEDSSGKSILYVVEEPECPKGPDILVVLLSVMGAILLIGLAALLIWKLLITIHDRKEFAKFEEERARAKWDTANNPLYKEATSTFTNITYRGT
Description: In Vitro Solid Phase Purified αvβ3 Binding Assay
(§1) Human αvβ3 (Chemicon International Inc., Temecula, Calif.), at a concentration of 1 μg/ml dissolved in Tris buffer (20 mM Tris, 1 mM CaCl2, 1 mM MgCl2, 10 μM MnCl2, 150 mM NaCl), was immobilized on Immulon 96 well plates (Dynex Technologies, Chantilly, Va.) overnight at 4° C. Plates were washed and treated with blocking buffer (3% BSA in Tris buffer) for 2 h at 37° C. Plates were then rinsed 2 times with assay buffer comprised of Tris buffer. Synthesized compounds were added to wells in duplicate immediately prior to the addition of 2 nM vitronectin (Sigma, St. Louis, Mo.). Following a 3 hour incubation at 37° C., plates were washed 5 times in assay buffer. An anti-human vitronectin IgG rabbit polyclonal antibody (Calbiochem, San Diego, Calif.) was added (1:2000) and plates were incubated for 1 hour at room temperature. VectaStain ABC peroxidase kit reagents (Vector Laboratories, Burlingame, Calif.) employing a biotin labeled anti-rabbit IgG, were utilized for detection of bound antibody. Plates were read at 490 nm on a Molecular Devices (Sunnyvale, Calif.) microplate reader.

GP IIb/IIIa = GP IIb/IIIa (Homo sapiens, UniProt P05106+P08514); test: In Vitro Solid Phase Purified GP IIb/IIIa Binding Assay (biotinylated fibrinogen); conditions: biotinylated fibrinogen binding to immobilized purified GP IIb/IIIa, mean ± spread
Sequence of GP IIb/IIIa (P08514 32-887 limits assumed): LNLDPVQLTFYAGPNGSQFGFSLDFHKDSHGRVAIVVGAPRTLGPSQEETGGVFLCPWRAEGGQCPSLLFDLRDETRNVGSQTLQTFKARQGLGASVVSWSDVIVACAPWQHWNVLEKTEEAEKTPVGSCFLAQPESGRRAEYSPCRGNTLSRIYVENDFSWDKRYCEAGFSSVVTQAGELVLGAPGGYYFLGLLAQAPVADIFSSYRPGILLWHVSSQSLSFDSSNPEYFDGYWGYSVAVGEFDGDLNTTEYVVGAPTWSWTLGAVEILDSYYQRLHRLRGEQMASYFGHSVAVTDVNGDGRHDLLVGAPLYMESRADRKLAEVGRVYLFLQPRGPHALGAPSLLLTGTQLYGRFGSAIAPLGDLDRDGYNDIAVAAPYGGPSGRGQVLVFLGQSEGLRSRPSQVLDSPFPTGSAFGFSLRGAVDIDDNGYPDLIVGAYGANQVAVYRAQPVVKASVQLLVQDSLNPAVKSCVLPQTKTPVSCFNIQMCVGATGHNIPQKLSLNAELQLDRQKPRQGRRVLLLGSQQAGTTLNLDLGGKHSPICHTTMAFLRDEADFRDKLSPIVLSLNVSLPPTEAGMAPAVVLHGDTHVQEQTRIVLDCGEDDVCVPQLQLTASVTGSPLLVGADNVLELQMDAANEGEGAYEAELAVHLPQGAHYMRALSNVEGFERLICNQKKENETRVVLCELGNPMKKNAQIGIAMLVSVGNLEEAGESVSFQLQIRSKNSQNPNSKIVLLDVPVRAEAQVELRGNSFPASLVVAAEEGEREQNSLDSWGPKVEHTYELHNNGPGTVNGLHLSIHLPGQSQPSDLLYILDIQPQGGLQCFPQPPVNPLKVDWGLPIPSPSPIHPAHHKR
Sequence of GP IIb/IIIa (P08514 891-1039 partner limits assumed): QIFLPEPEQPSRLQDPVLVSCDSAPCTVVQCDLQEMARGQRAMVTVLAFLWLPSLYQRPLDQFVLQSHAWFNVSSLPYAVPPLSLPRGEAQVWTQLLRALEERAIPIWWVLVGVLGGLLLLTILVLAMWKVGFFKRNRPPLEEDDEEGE
Sequence of GP IIb/IIIa (P05106 27-788): as the sequence (P05106 27-788) above
Description: In Vitro Solid Phase Purified GP IIb/IIIa Binding Assay
The plate was covered and incubated overnight at 4° C. The GP IIb/IIIa solution was discarded and 150 μL of 5% BSA was added and incubated at RT for 1-3 h. The plate was washed extensively with modified Tyrodes buffer. Biotinylated fibrinogen (25 μL/well) at 2× final concentration was added to the wells that contain the test compounds (25 μL/well). The plate was covered and incubated at RT for 2-4 h. Twenty minutes prior to incubation completion, one drop of Reagent A (VectaStain ABC Horseradish Peroxidase kit, Vector Laboratories, Inc.) and one drop Reagent B were added with mixing to 5 mL modified Tyrodes buffer mix and let stand. The ligand solution was discarded and the plate washed (5×200 μL/well) with modified Tyrodes buffer. […] The Vecta Stain solution was discarded and the wells washed (5×200 μL/well) with modified Tyrodes buffer. Developing buffer (10 mL of 50 mM citrate/phosphate buffer @ pH 5.3, 6 mg o-phenylenediamine, 6 μL 30% H2O2; 50 μL/well) was added and incubated at RT for 3-5 min and then 2 N H2SO4 (50 μL/well) was added.

human purified αVβ5 = target: T2, human purified αVβ5 (Homo sapiens, UniProt P06756+P18084); test: In Vitro Solid Phase Purified αcβ5 Binding Assay (vitronectin/αVβ5); conditions: vitronectin binding to immobilized purified human αVβ5, mean ± spread
T2 construct: purchased Chemicon International, Inc
T2 sequence (P06756 31-889 limits assumed): as the sequence (P06756 31-889 limits assumed) above
T2 sequence (P06756 891-1048 partner limits assumed): as the sequence (P06756 891-1048 partner limits assumed) above
T2 sequence (P18084 24-799): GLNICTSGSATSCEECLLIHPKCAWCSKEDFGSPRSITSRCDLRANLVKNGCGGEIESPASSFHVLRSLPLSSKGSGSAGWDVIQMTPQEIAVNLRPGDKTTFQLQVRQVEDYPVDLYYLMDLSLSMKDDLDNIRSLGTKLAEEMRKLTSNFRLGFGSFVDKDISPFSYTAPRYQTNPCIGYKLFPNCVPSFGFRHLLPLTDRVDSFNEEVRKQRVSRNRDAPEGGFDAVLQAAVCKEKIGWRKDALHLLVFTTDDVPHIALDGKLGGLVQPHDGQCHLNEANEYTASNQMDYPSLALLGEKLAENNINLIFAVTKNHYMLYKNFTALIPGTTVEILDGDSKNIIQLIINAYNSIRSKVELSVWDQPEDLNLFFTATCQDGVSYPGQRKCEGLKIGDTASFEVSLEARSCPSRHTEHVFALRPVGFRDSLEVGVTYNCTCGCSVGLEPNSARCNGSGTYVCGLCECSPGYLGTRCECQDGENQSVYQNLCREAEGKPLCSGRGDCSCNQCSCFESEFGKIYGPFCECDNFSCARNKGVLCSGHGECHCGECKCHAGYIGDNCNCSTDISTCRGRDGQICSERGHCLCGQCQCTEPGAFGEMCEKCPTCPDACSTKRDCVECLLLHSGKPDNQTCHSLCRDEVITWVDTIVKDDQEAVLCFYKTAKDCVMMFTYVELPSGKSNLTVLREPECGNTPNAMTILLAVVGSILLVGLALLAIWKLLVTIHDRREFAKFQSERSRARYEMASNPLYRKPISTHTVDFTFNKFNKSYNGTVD
Description: as §1
In Vitro Solid Phase Purified αcβ5 Binding Assay
All other aspects of the assay including buffers, reagents and incubation times remain unchanged.

Structure (SMILES)	IC50 (Human αvβ3; read-out: αvβ3IC50)	IC50 (GP IIb/IIIa; read-out: αIIbβ3 IC50)	IC50 (human purified αVβ5; read-out: αvβ5 IC50)	IC50 (Human αvβ3; αvβ3IC50 (uM))	IC50 (human purified αVβ5; αvβ5 IC50 (uM))	IC50 (GP IIb/IIIa; αIIbβ3 IC50 (uM))
CSc1cccc(C(CC(=O)O)CC2CCN(C(=O)CCc3ccc4c(n3)NCCC4)CC2)c1 (racemic) [Cpd 66]	0.0012 ± 0.0001 µM	28.3 µM	0.0103 ± 0.0014 µM			
O=C(O)CC(CC1CCN(C(=O)CCc2ccc3c(n2)NCCC3)CC1)C1CCOC1 (racemic) [Cpd 62]	0.09 ± 0.002 µM	> 50 µM	0.17 ± 0.081 µM			
O=C(O)CC(CC1CCN(C(=O)CCc2ccc3c(n2)NCCC3)CC1)C1CNc2ccccc2C1 (single isomer, unassigned) [Cpd 19-4, 1,2,3,4-tetrahydro-β-[[1-[1-oxo-3-(5,6,7,8-tetrahydro-1,8-naphthyridin-2-yl)propyl]-4-piperidinyl]methyl]-3-quinolinepropanoic acid]	0.0013 ± 0.0007 µM	4.86 µM	0.0075 ± 0.0018 µM			
O=C(O)CCCC1CCN(C(=O)CCc2ccc3c(n2)NCCC3)CC1 [Cpd 61]	0.0045 ± 0.0007 µM	37.5 ± 31.6 µM	0.0253 ± 0.0073 µM			
CCCCCCCCOC(=O)CCCC1CCN(C(=O)CCc2ccc3c(n2)NCCC3)CC1 [Cpd 71, 4-[1-(3-5,6,7,8-Tetrahydro-[1,8]naphthyridin-2-yl-propionyl)-piperidin-4-yl]-butyric acid octyl ester]	> 0.5 µM	> 50 µM	> 1 µM			
O=C(O)CC(C1CCN(C(=O)CCCc2ccc3c(n2)NCCC3)CC1)C1CNc2ccccc2C1 (single isomer, unassigned) [Cpd 5-4, 1,2,3,4-Tetrahydro-β-[1-[1-oxo-4-(5,6,7,8-tetrahydro-1,8-naphthyridin-2-yl)butyl]-4-piperidinyl]-3-quinolinepropanoic acid]		9.82 µM		0.0054 ± 0.0002 µM	0.162 ± 0.0627 µM	
COc1ccc(C(CC(=O)O)CC2CCN(C(=O)CCc3ccc4c(n3)NCCC4)CC2)cn1 (single isomer, unassigned) [Cpd 28a, 6-methoxy-β-[[1-[1-oxo-3-(5,6,7,8-tetrahydro-1,8-naphthyridin-2-yl)propyl]-4-piperidinyl]methyl]-3-pyridinepropanoic acid]	0.0003 ± 0.0002 µM		0.0042 ± 0.0018 µM			1.83 ± 0.57 µM
COc1ccc(C(CCC2CCN(C(=O)CCc3ccc4c(n3)NCCC4)CC2)CC(=O)O)cn1 (stereo not drawn) [Cpd 21, 6-methoxy-β-[2-[1-[1-oxo-3-(5,6,7,8-tetrahydro-1,8-naphthyridin-2-yl)propyl]-4-piperidinyl]ethyl]-3-pyridinepropanoic acid]	0.028 ± 0.0031 µM	1.8 ± 0.63 µM	0.78 µM			
O=C(O)CC(CCC1CCN(C(=O)CCCNc2ccccn2)CC1)c1ccc2c(c1)OCO2 (stereo not drawn) [Cpd 23, β-(1,3-benzodioxol-5-yl)-1-[1-oxo-4-(2-pyridinylamino)butyl]-4-piperidinepentanoic acid]	0.298 ± 0.146 µM	4.93 µM	2.01 µM			
CNc1cccc(C(CC(=O)O)CC2CCN(C(=O)CCc3ccc4c(n3)NCCC4)CC2)c1 (racemic) [Cpd 79, 3-(3-Methylamino-phenyl)-4-[1-(3-5,6,7,8-tetrahydro-[1,8]naphthyridin-2-yl-propionyl)-piperidin-4-yl]-butyric acid]	0.0035 ± 0.0015 µM	40.2 µM	0.025 ± 0.006 µM			
COc1ccc(C(CC(=O)O)CC2CCN(C(=O)CCc3ccc4c(n3)NCCC4)CC2)cn1 (stereo not drawn) [Cpd 28, 6-methoxy-β-[[1-[1-oxo-3-(5,6,7,8-tetrahydro-1,8-naphthyridin-2-yl)propyl]-4-piperidinyl]methyl]-3-pyridinepropanoic acid]				0.0007 ± 0.0002 µM	0.0027 ± 0.0008 µM	6.1 ± 2.44 µM
O=C(O)CC(CC1CCN(C(=O)CCc2ccc3c(n2)NCCC3)CC1)c1cccc(F)c1 (stereo not drawn) [Cpd 30, β-(3-fluorophenyl)-1-[1-oxo-3-(5,6,7,8-tetrahydro-1,8-naphthyridin-2-yl)propyl]-4-piperidinebutanoic acid]	0.001 ± 0.0002 µM	14.4 ± 5.98 µM	0.0028 ± 0.0001 µM			
O=C(O)CC(CC1CCN(C(=O)CCc2ccc3c(n2)NCCC3)CC1)c1cccc(C(F)(F)F)c1 (stereo not drawn) [Cpd 39, 1-[1-oxo-3-(5,6,7,8-tetrahydro-1,8-naphthyridin-2-yl)propyl]-β-[3-(trifluoromethyl)phenyl]-4-piperidinebutanoic acid]	0.0066 ± 0.0018 µM	> 50 µM	0.0287 ± 0.0133 µM			
O=C(O)CC(CCC1CCN(C(=O)c2cccc(NC3=NCCCN3)c2)CC1)c1cccnc1 (stereo not drawn) [Cpd 6, β-[2-[1-[3-[(1,4,5,6-Tetrahydro-2-pyrimidinyl)amino]benzoyl]-4-piperidinyl]ethyl]-3-pyridinepropanoic acid]	0.0076 ± 0.0021 µM	1.62 ± 0.05 µM	0.54 µM			
O=C(O)CC(CCC1CCN(C(=O)c2cccc(NC3=NCCCC3)c2)CC1)c1cnc2ccccc2c1 (stereo not drawn) [Cpd 50, β-[2-[1-[3-[(3,4,5,6-tetrahydro-2-pyridinyl)amino]benzoyl]-4-piperidinyl]ethyl]-3-quinolinepropanoic acid]	0.0156 ± 0.0044 µM	0.19 ± 0.04 µM	0.676 µM			
COc1ccc(C(CCC2CCN(C(=O)c3cccc(NC4=NCC(O)CN4)c3)CC2)CC(=O)O)cn1 (stereo not drawn) [Cpd 10, 6-Methoxy-β-[2-[1-[3-[(1,4,5,6-tetrahydro-5-hydroxy-2-pyrimidinyl)amino]benzoyl]-4-piperidinyl]ethyl]-3-pyridinepropanoic acid]	0.0024 ± 0.0013 µM	1.67 µM	0.0335 ± 0.0075 µM			
O=C(O)CC(CCC1CCN(C(=O)c2cccc(NC3=NCCCN3)c2)CC1)c1cnc2ccccc2c1 (stereo not drawn) [Cpd 12, β-[2-[1-[3-[(1,4,5,6-Tetrahydro-2-pyrimidinyl)amino]benzoyl]-4-piperidinyl]ethyl]-3-quinolinepropanoic acid]	0.0042 ± 0.0014 µM	0.136 ± 0.003 µM	0.078 ± 0.017 µM			
O=C(O)CC(CCC1CCN(C(=O)CCCNc2ccccn2)CC1)c1cnc2ccccc2c1 (stereo not drawn) [Cpd 22, β-[2-[1-[1-oxo-4-(2-pyridinylamino)butyl]-4-piperidinyl]ethyl]-3-quinolinepropanoic acid]	0.0046 ± 0.0008 µM	0.43 ± 0.07 µM	0.195 µM			
COc1ccc(C(CC(=O)O)CC2CCN(C(=O)CCc3ccc4c(n3)NCCC4)CC2)cc1 (racemic) [Cpd 60]	0.001 ± 0.0008 µM	4.53 ± 2.47 µM	0.0309 ± 0.0006 µM			
O=C(O)CC(CC1CCN(C(=O)CCc2ccc3c(n2)NCCC3)CC1)c1ccc(OC(F)(F)F)cc1 (stereo not drawn) [Cpd 40, 1-[1-oxo-3-(5,6,7,8-tetrahydro-1,8-naphthyridin-2-yl)propyl]-β-[4-(trifluoromethoxy)phenyl]-4-piperidinebutanoic acid]	0.0052 ± 0.0002 µM	24 ± 9.89 µM	0.308 ± 0.063 µM			
O=C(O)CC(CC1CCN(C(=O)CCc2ccc3c(n2)NCCC3)CC1)c1ccc(-c2ccccc2)c(F)c1 (stereo not drawn) [Cpd 41, β-(2-fluoro[1,1′-biphenyl]-4-yl)-1-[1-oxo-3-(5,6,7,8-tetrahydro-1,8-naphthyridin-2-yl)propyl]-4-piperidinebutanoic acid]	0.0018 ± 0.001 µM	19.3 ± 2.6 µM	0.873 ± 0.158 µM			

More lines, main results first:

IC50 (Human αvβ3; read-out: αvβ3IC50)	IC50 (GP IIb/IIIa; read-out: αIIbβ3 IC50)	IC50 (human purified αVβ5; read-out: αvβ5 IC50)	Structure (SMILES)	IC50 (Human αvβ3; αvβ3IC50 (uM))	IC50 (human purified αVβ5; αvβ5 IC50 (uM))	IC50 (GP IIb/IIIa; αIIbβ3 IC50 (uM))
0.0011 ± 0.0002 µM	10.4 µM	0.0169 ± 0.0021 µM	COc1cc(C(CC(=O)O)CC2CCN(C(=O)CCc3ccc4c(n3)NCCC4)CC2)ccc1O (stereo not drawn) [Cpd 76a]			
0.0004 µM	0.79 ± 0.05 µM	0.0009 ± 0.0006 µM	O=C(O)CC(CC1CCN(C(=O)CCc2ccc3c(n2)NCCC3)CC1)c1ccc2c(c1)OCC2 (single isomer, unassigned) [Cpd 36a, 3-(2,3-Dihydro-benzofuran-6-yl)-4-[1-(3-5,6,7,8-tetrahydro-[1,8]naphthyridin-2-yl-propionyl)-piperidin-4-yl]-butyric acid]			
0.0005 ± 0.0002 µM	14.7 µM	0.0265 ± 0.0034 µM	O=C(O)CC(CC1CCN(C(=O)CCc2ccc3c(n2)NCCC3)CC1)c1ccc2ccccc2c1 (single isomer, unassigned) [Cpd 56a, 3-Naphthalen-2-yl-4-[1-(3-5,6,7,8-tetrahydro-[1,8]naphthyridin-2-yl-propionyl)-piperidin-4-yl]-butyric acid]			
